Test results: ChEMBL document CHEMBL1201862, “PubChem BioAssay data set” (2004)
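Cultured in 96-well plates, cells were exposed to test compound for 48 hours across five concentrations. The concentration for 50% growth inhibition is given as GI50.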 Active and inactive are the calls of the source. Cut-off read from the data, not from the text of the source: active = GI50 up to about 1.1 µM and inactive = higher.

Experiments:
Test in all cases: inhibition of tumour cell growth, NCI panel, 48 h
[1] = system: DLD-1
[2] = system: UO-31
[3] = system: NCI-H23
[4] = system: KM12
[5] = system: COLO 205
[6] = system: UACC-257
[7] = system: SK-OV-3
[8] = system: A498
[9] = system: SK-MEL-2
[10] = system: Malme-3M
[11] = system: SF-539
[12] = system: SW-620
[13] = system: RPMI-8226
[14] = system: NCI-H522
[15] = system: KM-20L2
[16] = system: U-251
[17] = system: HOP-62

| SMILES | GI50 [1] | GI50 [2] | GI50 [3] | GI50 [4] | GI50 [5] | GI50 [6] | GI50 [7] | GI50 [8] | GI50 [9] | GI50 [10] | GI50 [11] | GI50 [12] | GI50 [13] | GI50 [14] | GI50 [15] | GI50 [16] | GI50 [17] |
| --- | --- | --- | --- | --- | --- | --- | --- | --- | --- | --- | --- | --- | --- | --- | --- | --- | --- |
| C=C1CC2(CCS(=O)(=O)c3ccccc32)OC1=O (stereo not given) | 12.5 µM (inactive) | 13.2 µM (inactive) | 12 µM (inactive) | 16 µM (inactive) | 2.99 µM (inactive) | 14.5 µM (inactive) | 17.6 µM (inactive) | 17.3 µM (inactive) | 10.7 µM (inactive) | 12.4 µM (inactive) | 5.6 µM (inactive) | 3.01 µM (inactive) | 2.74 µM (inactive) | 2.82 µM (inactive) | 14.3 µM (inactive) | 13.2 µM (inactive) | 18.3 µM (inactive) |
| CCN(CC)CCCN(c1cc(OC)cc2nccnc12)S(=O)(=O)c1ccc(C)cc1 | > 100 µM (inactive) | > 100 µM (inactive) | > 100 µM (inactive) | > 100 µM (inactive) | > 100 µM (inactive) | > 100 µM (inactive) | > 100 µM (inactive) | > 100 µM (inactive) | > 100 µM (inactive) | > 100 µM (inactive) | > 100 µM (inactive) | > 100 µM (inactive) | > 100 µM (inactive) | > 100 µM (inactive) | > 100 µM (inactive) | > 100 µM (inactive) | > 100 µM (inactive) |
| FC(F)(F)c1nc(-c2ccccc2)oc1Sc1nnc(Sc2oc(-c3ccccc3)nc2C(F)(F)F)s1 | 36.4 µM (inactive) | > 100 µM (inactive) | 24.2 µM (inactive) | > 100 µM (inactive) | 41.1 µM (inactive) | > 69.7 µM (inactive) | > 100 µM (inactive) | 98.6 µM (inactive) | 86.7 µM (inactive) | 18.1 µM (inactive) | > 69.8 µM (inactive) | > 60.3 µM (inactive) | 30.5 µM (inactive) | 18.5 µM (inactive) | > 100 µM (inactive) | > 42.5 µM (inactive) | > 100 µM (inactive) |
| COc1cc(/C=C/c2ccc(Br)cc2)cc(OC)c1OC | 6.93 µM (inactive) | 9.77 µM (inactive) | 16.3 µM (inactive) | 8.11 µM (inactive) | 8.83 µM (inactive) | 13.5 µM (inactive) | 20.7 µM (inactive) | 6.71 µM (inactive) | 14.6 µM (inactive) | 6.08 µM (inactive) | 11.4 µM (inactive) | 7.62 µM (inactive) | 3.99 µM (inactive) | 11.8 µM (inactive) | 7.13 µM (inactive) | 10.1 µM (inactive) | 13.7 µM (inactive) |
| CC(=O)OCC1OC(n2ccc(=O)[nH]c2=O)C(OC(C)=O)C(OC(C)=O)C1OC(C)=O (stereo not given) | > 100 µM (inactive) | > 100 µM (inactive) | > 100 µM (inactive) | > 100 µM (inactive) | > 100 µM (inactive) | > 100 µM (inactive) | > 100 µM (inactive) | > 100 µM (inactive) | > 100 µM (inactive) | > 100 µM (inactive) | – | > 100 µM (inactive) | > 100 µM (inactive) | > 100 µM (inactive) | > 100 µM (inactive) | > 100 µM (inactive) | > 100 µM (inactive) |
| COc1cccc(/C(Cl)=C(\C=O)c2cccc(OC)c2)c1 | 8.43 µM (inactive) | 13 µM (inactive) | 5.77 µM (inactive) | 12.8 µM (inactive) | 11.9 µM (inactive) | 15.3 µM (inactive) | 20 µM (inactive) | 19.3 µM (inactive) | 15.4 µM (inactive) | 0.946 µM (active) | 17.4 µM (inactive) | 6.81 µM (inactive) | 4.62 µM (inactive) | 2.68 µM (inactive) | 20.9 µM (inactive) | 10.1 µM (inactive) | 12.3 µM (inactive) |
| Cc1ccc2c(c1)NC(=O)C(N=[N+]=[N-])(c1ccccc1)C2=O (stereo not given) | 43 µM (inactive) | 29 µM (inactive) | 20 µM (inactive) | 15.2 µM (inactive) | 14.1 µM (inactive) | 29.5 µM (inactive) | 33.9 µM (inactive) | 39.9 µM (inactive) | 17.9 µM (inactive) | 32.5 µM (inactive) | 35.5 µM (inactive) | 34.8 µM (inactive) | – | 20.8 µM (inactive) | 30.3 µM (inactive) | 25.8 µM (inactive) | 65.9 µM (inactive) |
| NNC(=O)C(=O)NN=C(C(Cl)(Cl)CO)C(Cl)(Cl)CO | 22.6 µM (inactive) | 45.7 µM (inactive) | 30.5 µM (inactive) | 44.1 µM (inactive) | > 100 µM (inactive) | 30.6 µM (inactive) | > 100 µM (inactive) | > 100 µM (inactive) | 22.1 µM (inactive) | 19.8 µM (inactive) | 25.2 µM (inactive) | 18.4 µM (inactive) | 27.4 µM (inactive) | 12.1 µM (inactive) | 44.5 µM (inactive) | 19.5 µM (inactive) | 70.8 µM (inactive) |
| CC(C)(C)c1cc2c3c(c1)c(=O)c1cccc4c(O)c5cccc(c2=O)c5c-3c41 | 61 µM (inactive) | > 100 µM (inactive) | 68.4 µM (inactive) | 38.1 µM (inactive) | > 100 µM (inactive) | > 100 µM (inactive) | > 100 µM (inactive) | 99.1 µM (inactive) | 24.7 µM (inactive) | > 100 µM (inactive) | 10 µM (inactive) | > 100 µM (inactive) | – | > 100 µM (inactive) | 33.2 µM (inactive) | 57.7 µM (inactive) | 47 µM (inactive) |
| COc1c(C)c(O)c2c(c1C)OC(c1ccccc1)CC2=O (stereo not given) | 66.1 µM (inactive) | 61.7 µM (inactive) | 42.5 µM (inactive) | 52.6 µM (inactive) | – | > 10 µM (inactive) | > 100 µM (inactive) | 19.9 µM (inactive) | 22.4 µM (inactive) | 24.6 µM (inactive) | 84.5 µM (inactive) | 64.4 µM (inactive) | 36.1 µM (inactive) | 45.9 µM (inactive) | 31.6 µM (inactive) | 67.9 µM (inactive) | > 100 µM (inactive) |
| O=c1/c(=C/c2ccccc2[N+](=O)[O-])sc2nnc(-c3ccco3)n12 | 29.2 µM (inactive) | 30.5 µM (inactive) | 22.2 µM (inactive) | 17.6 µM (inactive) | 30.4 µM (inactive) | 33.9 µM (inactive) | 47.4 µM (inactive) | > 100 µM (inactive) | 15.8 µM (inactive) | 23 µM (inactive) | 18.7 µM (inactive) | 20.4 µM (inactive) | – | 18.2 µM (inactive) | 91 µM (inactive) | 21.2 µM (inactive) | 19.3 µM (inactive) |
| C/C(=N/NC(=O)C[n+]1ccccc1)C(CN(CC(C)C)CC(C)C)C(=O)Nc1ccc(C)cc1C (stereo not given) | > 100 µM (inactive) | 15.1 µM (inactive) | > 100 µM (inactive) | – | > 100 µM (inactive) | > 100 µM (inactive) | > 100 µM (inactive) | 25.4 µM (inactive) | > 100 µM (inactive) | > 100 µM (inactive) | > 100 µM (inactive) | > 100 µM (inactive) | 68.1 µM (inactive) | 40.8 µM (inactive) | > 100 µM (inactive) | – | 90.8 µM (inactive) |
| COc1ccc(/C=C/C(=O)c2sc(NC(=S)NC(=O)c3ccccc3F)nc2C)cc1OC | > 100 µM (inactive) | 37.3 µM (inactive) | > 100 µM (inactive) | > 100 µM (inactive) | 51.5 µM (inactive) | – | > 100 µM (inactive) | > 100 µM (inactive) | > 100 µM (inactive) | > 100 µM (inactive) | > 100 µM (inactive) | > 100 µM (inactive) | 36.2 µM (inactive) | 21.5 µM (inactive) | > 100 µM (inactive) | > 100 µM (inactive) | > 100 µM (inactive) |
| COc1ccc(N(C)CN(C)c2nc(N(C)C)nc(N(C)C)n2)cc1 | > 100 µM (inactive) | > 100 µM (inactive) | > 100 µM (inactive) | > 100 µM (inactive) | > 100 µM (inactive) | > 100 µM (inactive) | > 100 µM (inactive) | > 100 µM (inactive) | > 100 µM (inactive) | > 100 µM (inactive) | > 100 µM (inactive) | > 100 µM (inactive) | > 100 µM (inactive) | > 100 µM (inactive) | > 100 µM (inactive) | > 100 µM (inactive) | > 100 µM (inactive) |
| COc1nc(C(=O)O)c(Cl)c(OC)c1Cl | > 100 µM (inactive) | > 100 µM (inactive) | > 100 µM (inactive) | > 100 µM (inactive) | > 100 µM (inactive) | > 100 µM (inactive) | > 100 µM (inactive) | > 100 µM (inactive) | > 100 µM (inactive) | > 100 µM (inactive) | > 100 µM (inactive) | > 100 µM (inactive) | > 100 µM (inactive) | > 100 µM (inactive) | > 100 µM (inactive) | – | > 100 µM (inactive) |
| N=C1c2ccccc2C(=O)c2c(NCCNCCO)ccc(O)c21 | 5.92 µM (inactive) | 7.83 µM (inactive) | 9.16 µM (inactive) | 6.92 µM (inactive) | 4.73 µM (inactive) | 13.9 µM (inactive) | 6.55 µM (inactive) | 13.7 µM (inactive) | 17.1 µM (inactive) | 13.7 µM (inactive) | 4.73 µM (inactive) | 3.1 µM (inactive) | 7.19 µM (inactive) | 3.4 µM (inactive) | 5 µM (inactive) | 4.46 µM (inactive) | 4.91 µM (inactive) |
| COC(=O)[C@]1(C)CCC[C@@]2(C)C1CCC1=C[C@@]3(C(C)C)CC[C@]12OO3 (stereo not given in full) | 24.2 µM (inactive) | 18.5 µM (inactive) | 34.1 µM (inactive) | 24.6 µM (inactive) | 22.5 µM (inactive) | 26.2 µM (inactive) | 60 µM (inactive) | 20.4 µM (inactive) | 36.5 µM (inactive) | 42 µM (inactive) | 22.3 µM (inactive) | 36.1 µM (inactive) | 18.2 µM (inactive) | 17.8 µM (inactive) | > 10 µM (inactive) | 41.8 µM (inactive) | 36.9 µM (inactive) |
